From ChEMBL document CHEMBL1201862, “PubChem BioAssay data set” (2004)
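Five concentrations, 48 hours, 96-well plates. Abbreviation: GI50, concentration required for 50% inhibition of growth.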 Active and inactive are the calls of the source. No stated cut-off is given here; in the data, active = GI50 up to about 1.1 µM and inactive = higher.

Assays:
Test in all cases: NCI-60 cell line screen, 48 h
HCT-116 = tested on: HCT-116
Hs-578T = tested on: Hs-578T
MCF7 = tested on: MCF7
Malme-3M = tested on: Malme-3M
SW-620 = tested on: SW-620
A549 = tested on: A549
RPMI-8226 = tested on: RPMI-8226
MDA-N = tested on: MDA-N
HCC 2998 = tested on: HCC 2998
SN12C = tested on: SN12C
OVCAR-5 = tested on: OVCAR-5
NCI-H522 = tested on: NCI-H522
DU-145 = tested on: DU-145
K562 = tested on: K562
U-251 = tested on: U-251
UO-31 = tested on: UO-31
HOP-92 = tested on: HOP-92
LOX IMVI = tested on: LOX IMVI
EKVX = tested on: EKVX
KM-20L2 = tested on: KM-20L2

Measured: GI50

Cn1cnc([N+](=O)[O-])c1Sc1nc(N)nc2c1ncn2[C@H]1C[C@H](O)[C@@H](CO)O1
inactive: HCT-116 2.86 µM | Hs-578T 10.3 µM | MCF7 2.61 µM | Malme-3M 5.26 µM | SW-620 6.5 µM | A549 4.63 µM | MDA-N 4.36 µM | HCC 2998 13.8 µM | SN12C 5.16 µM | OVCAR-5 3.08 µM | NCI-H522 2.57 µM | DU-145 1.21 µM | K562 2.71 µM | U-251 12 µM | UO-31 3.43 µM | HOP-92 17.3 µM | EKVX 9.18 µM
active: RPMI-8226 1.09 µM | LOX IMVI 0.434 µM

CNc1ccc(/C=C2\C=Cc3ccccc32)cc1
inactive: HCT-116 33.1 µM | SW-620 33.1 µM | A549 24 µM | KM-20L2 19.1 µM | RPMI-8226 54.3 µM | HCC 2998 16.6 µM | SN12C 29.9 µM | OVCAR-5 18.8 µM | NCI-H522 10.8 µM | K562 32 µM | U-251 32.4 µM | UO-31 10.2 µM | HOP-92 19.1 µM | LOX IMVI 11.5 µM | EKVX 20.1 µM

N#CCC(=O)N/N=C(\C(=O)Nc1ccc(Cl)c(Cl)c1)C1CN(c2ccccc2)N=C1N (stereo not given)
inactive: HCT-116 > 100 µM | Malme-3M > 100 µM | A549 > 100 µM | KM-20L2 > 100 µM | RPMI-8226 > 100 µM | HCC 2998 > 100 µM | SN12C > 100 µM | OVCAR-5 > 100 µM | NCI-H522 > 100 µM | K562 > 100 µM | U-251 > 100 µM | UO-31 > 100 µM | HOP-92 > 100 µM | LOX IMVI > 100 µM | EKVX > 100 µM

COc1ccc(/C=C/C(=O)c2sc(-c3cccnc3)nc2C)cc1
inactive: Malme-3M 62.8 µM | SW-620 32.8 µM | A549 39.2 µM | KM-20L2 56.4 µM | RPMI-8226 2.9 µM | HCC 2998 37.5 µM | SN12C 64.6 µM | OVCAR-5 > 100 µM | NCI-H522 20.5 µM | K562 21.8 µM | U-251 58.3 µM | UO-31 41.7 µM | HOP-92 81.5 µM | LOX IMVI 25.1 µM | EKVX > 100 µM

CC1=CC(=O)C(C)(C2=NC(C)(C)CO2)c2ccccc21 (stereo not given)
inactive: HCT-116 > 100 µM | Malme-3M > 100 µM | SW-620 > 100 µM | A549 > 100 µM | KM-20L2 > 100 µM | RPMI-8226 > 100 µM | SN12C > 100 µM | NCI-H522 > 100 µM | K562 > 100 µM | U-251 > 100 µM | UO-31 > 100 µM | HOP-92 > 100 µM | EKVX > 100 µM

Cc1cc(=O)oc2c(C)c(OCCCOc3ccc4c(C)cc(=O)oc4c3C)ccc12
inactive: HCT-116 > 100 µM | Malme-3M > 100 µM | SW-620 > 100 µM | A549 > 100 µM | KM-20L2 > 100 µM | RPMI-8226 > 100 µM | OVCAR-5 > 100 µM | NCI-H522 > 100 µM | K562 > 100 µM | U-251 > 100 µM | UO-31 > 100 µM | HOP-92 65.9 µM | LOX IMVI > 100 µM | EKVX > 100 µM

CC1(C)N=C(/C=N/O)C(C)(C)N1O
inactive: HCT-116 > 100 µM | Hs-578T > 100 µM | MCF7 > 100 µM | Malme-3M > 100 µM | SW-620 > 100 µM | A549 > 100 µM | RPMI-8226 > 100 µM | MDA-N > 100 µM | HCC 2998 > 100 µM | SN12C > 100 µM | OVCAR-5 > 100 µM | NCI-H522 > 100 µM | DU-145 > 100 µM | K562 > 100 µM | U-251 > 100 µM | UO-31 81.3 µM | HOP-92 > 100 µM | LOX IMVI > 100 µM | EKVX > 100 µM

Cc1c2c(cc3c(=O)ccn(CCN(C)C)c13)c(=O)ccn2CCN(C)C
inactive: HCT-116 6.35 µM | Malme-3M 27.4 µM | SW-620 3.81 µM | A549 13.7 µM | KM-20L2 5.04 µM | HCC 2998 6.19 µM | SN12C 11.2 µM | OVCAR-5 13.5 µM | NCI-H522 2.31 µM | K562 17.8 µM | U-251 8.34 µM | UO-31 10.3 µM | HOP-92 6.1 µM | LOX IMVI 10.3 µM | EKVX 13 µM

FC(F)(F)C1(Br)C(c2ccccc2)=C1c1ccccc1
inactive: HCT-116 6.7 µM | Malme-3M 15.8 µM | SW-620 16.5 µM | A549 17.7 µM | KM-20L2 16.1 µM | RPMI-8226 19.3 µM | HCC 2998 16.9 µM | SN12C 14 µM | OVCAR-5 20.9 µM | K562 7.14 µM | U-251 15.6 µM | UO-31 18 µM | HOP-92 16.7 µM | LOX IMVI 12.9 µM | EKVX 32.2 µM
